In ChEMBL document CHEMBL2073915, “Broad-spectrum modulation of ATP-binding cassette transport proteins by the taxane derivatives ortataxel (IDN-5109, BAY 59-8862) and tRA96023” (Cancer Chemother Pharmacol, 2004):

Tests used:
Assay type in all cases: functional, cell-based
Settings in all cases: mcf7r
[1] = target: T1, ATP-dependent translocase ABCB1 (Homo sapiens, UniProt P08183); assay: TP_TRANSPORTER: efflux of 3uM mitoxantrone in the presence of tRA96023 at a concentration of 10uM in MCF7/R cells
T1 sequence (P08183 whole entry): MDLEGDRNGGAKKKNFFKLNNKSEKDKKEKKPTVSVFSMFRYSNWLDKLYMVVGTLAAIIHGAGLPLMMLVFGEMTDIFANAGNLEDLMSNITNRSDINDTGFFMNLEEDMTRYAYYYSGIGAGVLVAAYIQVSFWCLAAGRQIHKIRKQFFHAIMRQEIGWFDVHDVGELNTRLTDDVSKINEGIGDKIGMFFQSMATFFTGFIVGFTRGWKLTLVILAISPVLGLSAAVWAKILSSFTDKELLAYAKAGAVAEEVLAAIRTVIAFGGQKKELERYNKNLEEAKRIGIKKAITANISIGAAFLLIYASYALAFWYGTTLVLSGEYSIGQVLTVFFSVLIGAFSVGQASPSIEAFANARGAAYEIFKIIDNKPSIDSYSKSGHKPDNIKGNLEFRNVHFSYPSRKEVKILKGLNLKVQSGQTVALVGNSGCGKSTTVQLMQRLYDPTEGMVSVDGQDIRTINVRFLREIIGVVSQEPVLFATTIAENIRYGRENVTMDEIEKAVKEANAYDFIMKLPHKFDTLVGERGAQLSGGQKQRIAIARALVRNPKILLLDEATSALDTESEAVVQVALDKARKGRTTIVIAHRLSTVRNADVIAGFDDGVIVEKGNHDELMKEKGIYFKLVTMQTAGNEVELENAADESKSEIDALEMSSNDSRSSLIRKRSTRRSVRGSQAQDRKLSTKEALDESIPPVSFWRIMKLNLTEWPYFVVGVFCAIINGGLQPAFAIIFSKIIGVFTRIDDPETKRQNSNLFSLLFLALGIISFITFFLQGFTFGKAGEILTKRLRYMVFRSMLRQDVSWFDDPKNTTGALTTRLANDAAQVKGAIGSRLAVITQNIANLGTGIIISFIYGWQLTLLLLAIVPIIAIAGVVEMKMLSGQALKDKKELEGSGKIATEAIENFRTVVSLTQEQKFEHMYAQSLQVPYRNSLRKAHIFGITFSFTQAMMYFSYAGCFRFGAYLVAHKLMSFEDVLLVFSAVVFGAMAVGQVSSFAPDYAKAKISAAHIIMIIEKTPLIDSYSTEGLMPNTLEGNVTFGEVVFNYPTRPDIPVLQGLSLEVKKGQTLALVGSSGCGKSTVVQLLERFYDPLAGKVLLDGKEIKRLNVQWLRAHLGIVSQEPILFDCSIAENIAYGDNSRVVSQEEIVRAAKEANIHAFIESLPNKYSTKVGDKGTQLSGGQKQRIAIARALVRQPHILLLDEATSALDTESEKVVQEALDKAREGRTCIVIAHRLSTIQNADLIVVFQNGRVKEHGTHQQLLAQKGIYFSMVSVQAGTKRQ

[2] = target: T1, ATP-dependent translocase ABCB1; assay: TP_TRANSPORTER: efflux of 3uM mitoxantrone by Fumitremorgin C at 10uM in MCF7/R cells
[3] = target: T1, ATP-dependent translocase ABCB1; assay: TP_TRANSPORTER: efflux of mitoxantrone (Mitoxantrone: 3uM) in the presence of Ortataxel at a concentration of 10uM in MCF7/R cells
[4] = target: T1, ATP-dependent translocase ABCB1; assay: TP_TRANSPORTER: efflux of 3uM mitoxantrone in the presence of Probenecid at 1mM in MCF7/R cells
[5] = target: T1, ATP-dependent translocase ABCB1; assay: TP_TRANSPORTER: efflux of 3uM mitoxantrone in the presence of PSC-833 (Valspodar) at a concentration of 2.5uM in MCF7/R cells

CC(=O)O[C@H]1C(=O)[C@@]2(C)C([C@H](OCc3ccccc3)C3(O)C[C@H](OC(C)=O)C(C)=C1C3(C)C)[C@]1(OC(C)=O)CO[C@@H]1C[C@@H]2OC(=O)/C=C/c1ccc(C(=O)c2ccccc2)cc1 (stereo not given in full)
Activity [1]: inhibitor [+]

COc1ccc2c3c([nH]c2c1)[C@H](C=C(C)C)N1C(=O)[C@@H]2CCCN2C(=O)[C@@H]1C3 [FUMITREMORGIN]
Activity [2]: is not an inhibitor [-]

CC(=O)O[C@H]1C(=O)[C@@]2(C)[C@H]([C@H](OC(=O)c3ccccc3)[C@]34OC(=O)O[C@H]3[C@H](OC(=O)[C@H](O)[C@H](CC(C)C)NC(=O)OC(C)(C)C)C(C)=C1C4(C)C)[C@]1(OC(C)=O)CO[C@@H]1C[C@@H]2O [ORTATAXEL]
Activity [3]: inhibitor [+]

CCCN(CCC)S(=O)(=O)c1ccc(C(=O)O)cc1 [PROBENECID]
Activity [4]: is not an inhibitor [-]

C/C=C/C[C@@H](C)C(=O)[C@H]1C(=O)N[C@@H](C(C)C)C(=O)N(C)CC(=O)N(C)[C@@H](CC(C)C)C(=O)N[C@@H](C(C)C)C(=O)N(C)[C@@H](CC(C)C)C(=O)N[C@@H](C)C(=O)N[C@H](C)C(=O)N(C)[C@@H](CC(C)C)C(=O)N(C)[C@@H](CC(C)C)C(=O)N(C)[C@@H](C(C)C)C(=O)N1C [VALSPODAR]
Activity [5]: inhibitor [+]
